Reference: ChEMBL document CHEMBL2440046, “Anabaseine analogues as modulators of nicotinic acetylcholine receptor” (ACS Med Chem Lett, 2013)

How the values were obtained:
[1] = molecular target: Neuronal acetylcholine receptor subunit alpha-7 (Rattus norvegicus, UniProt Q05941); test: Displacement of [125I]-alpha-bungarotoxin from Sprague-Dawley rat brain alpha7 nAChR after 3 hrs by liquid scintillation counting analysis
[2] = molecular target: Neuronal acetylcholine receptor; alpha4/beta2 (Rattus norvegicus, UniProt P09483+P12390); test: Displacement of [3H]-cytisine from Sprague-Dawley rat brain alpha4beta2 nAChR after 4 hrs by liquid scintillation counting analysis
Sequence of Neuronal acetylcholine receptor; alpha4/beta2 (P09483 whole entry): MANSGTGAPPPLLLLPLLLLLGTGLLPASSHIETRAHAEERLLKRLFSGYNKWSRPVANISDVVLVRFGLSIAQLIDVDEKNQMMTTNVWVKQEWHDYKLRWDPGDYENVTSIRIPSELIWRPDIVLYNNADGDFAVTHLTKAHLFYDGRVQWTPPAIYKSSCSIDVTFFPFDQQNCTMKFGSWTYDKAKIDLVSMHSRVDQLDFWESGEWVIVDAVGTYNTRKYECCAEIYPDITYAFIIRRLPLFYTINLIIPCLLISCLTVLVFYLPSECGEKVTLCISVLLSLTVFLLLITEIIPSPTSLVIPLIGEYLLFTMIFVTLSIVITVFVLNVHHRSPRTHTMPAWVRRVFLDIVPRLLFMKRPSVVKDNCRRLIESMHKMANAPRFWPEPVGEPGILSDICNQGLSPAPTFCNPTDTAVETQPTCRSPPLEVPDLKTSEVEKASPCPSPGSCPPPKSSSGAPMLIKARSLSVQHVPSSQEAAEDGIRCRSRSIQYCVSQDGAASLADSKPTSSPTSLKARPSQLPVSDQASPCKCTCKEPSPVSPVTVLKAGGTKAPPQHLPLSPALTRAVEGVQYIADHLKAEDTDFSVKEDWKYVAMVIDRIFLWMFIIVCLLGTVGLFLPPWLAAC
Sequence of Neuronal acetylcholine receptor; alpha4/beta2 (P12390 whole entry): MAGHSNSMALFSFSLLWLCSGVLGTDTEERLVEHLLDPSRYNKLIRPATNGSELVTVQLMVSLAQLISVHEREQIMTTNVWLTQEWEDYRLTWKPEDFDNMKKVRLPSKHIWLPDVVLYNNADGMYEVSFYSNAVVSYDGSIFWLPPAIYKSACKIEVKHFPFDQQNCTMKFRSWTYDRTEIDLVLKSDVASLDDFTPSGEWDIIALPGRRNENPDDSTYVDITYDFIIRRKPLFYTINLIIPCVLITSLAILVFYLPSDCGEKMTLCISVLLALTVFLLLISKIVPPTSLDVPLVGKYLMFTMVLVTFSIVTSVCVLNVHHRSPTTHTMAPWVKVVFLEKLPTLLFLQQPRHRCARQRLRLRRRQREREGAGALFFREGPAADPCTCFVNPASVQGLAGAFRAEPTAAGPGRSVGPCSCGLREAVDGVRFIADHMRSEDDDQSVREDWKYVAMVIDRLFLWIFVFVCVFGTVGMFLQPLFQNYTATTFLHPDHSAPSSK

Sequence of Neuronal acetylcholine receptor subunit alpha-7 (Q05941 whole entry): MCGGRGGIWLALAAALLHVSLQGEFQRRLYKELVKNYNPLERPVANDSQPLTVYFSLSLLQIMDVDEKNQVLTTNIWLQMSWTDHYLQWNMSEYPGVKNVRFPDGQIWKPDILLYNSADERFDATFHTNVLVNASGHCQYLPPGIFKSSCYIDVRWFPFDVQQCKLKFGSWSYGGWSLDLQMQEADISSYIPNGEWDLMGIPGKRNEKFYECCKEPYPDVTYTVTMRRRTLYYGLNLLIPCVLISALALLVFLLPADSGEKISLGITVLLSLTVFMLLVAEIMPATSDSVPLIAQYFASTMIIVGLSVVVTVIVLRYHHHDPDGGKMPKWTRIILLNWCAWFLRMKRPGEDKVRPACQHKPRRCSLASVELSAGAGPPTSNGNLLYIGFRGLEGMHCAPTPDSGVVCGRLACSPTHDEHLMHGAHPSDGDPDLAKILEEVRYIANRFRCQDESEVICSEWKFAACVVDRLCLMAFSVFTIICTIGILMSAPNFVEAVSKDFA

In the case of `COc1ccc(CC2C(c3cccnc3)=N[C@H]3CC[C@@H]2C3)c(OC)c1` (stereo partly drawn), the Ki [1] is reported as 16.4 nM and the Ki [2] is reported as 219 nM.
Work on `COc1ccc(CC2C(c3cccnc3)=N[C@@H]3CC[C@H]2C3)c(OC)c1` (stereo partly drawn) yielded a Ki [1] of 4400 nM and a Ki [2] of 347 nM.
For `Oc1ccc(CC2C(c3cccnc3)=N[C@H]3CC[C@@H]2C3)cc1` (stereo partly drawn), the Ki [1] was 34.1 nM and the Ki [2] was 72.5 nM.
Compound `Nc1ccc(CC2C(c3cccnc3)=N[C@H]3CC[C@@H]2C3)cc1` (stereo partly drawn) has a Ki [1] of 3.43 nM and a Ki [2] of 34.1 nM.
